Legend:
FITC-CAR-T = FITC-CAR-T proliferation in lymph nodes after vaccination (CTV-labeled cells); assay type: in vivo, C57Bl/6 mice; conditions: adjuvant alone, 25 ug
Description: To assess whether DSPE-PEG-FITC accumulating on lymph node antigen presenting cells would lead to CAR T cell priming and how long this stimulatory effect would last for, at day 1, mice were administered PBS, c-di-GMP (25 ug), DSPE-PEG-FITC (10 nmol), or DSPE-PEG-FITC (10 nmol)+c-di-GMP (25 ug) into wildtype C57Bl/6 mice. After various time points, as indicated in the timeline in FIG. 7A, 2×10^6 CTV-labeled CAR-T cells were transferred into each mouse via tail-vein injection. CAR-T cells were titrated to be a mixture of CAR+ and CAR-cells at 1:1 ratio. After another 48 hours, mice were sacrificed and LNs were removed for FACS analysis.

[1] = Trafficking to and retention in lymph nodes (IVIS imaging); assay type: in vivo, mice; conditions: free FITC control
Description: Based on the results of Example 2, it was next determined whether the amphiphilic ligand conjugate DSPE-PEG-FITC could coat antigen presenting cells in lymph nodes (LN) to prime FITC-CAR-T cells in vivo. To assess DSPE-PEG-FITC trafficking to the lymph node and retention and uptake by APCs, C57BIU6 mice received varying doses of DSPE-PEG-FITC. Specifically, inguinal LN, auxiliary LN and lilac LN were harvested 24 hours after administration of 2 nmol, 5 nmol, or 10 nmol doses of DSPE-PEG-FITC was into the tail-veil of the mice. Free FITC was used as control. Mice were sacrificed and LNs were removed at different time point for IVIS imaging (excitation 465 nm, emission 520 nm) to monitor LN retention of FITC signal.
While FITC signal was almost lost at the lowest dose (2 nmol) after 4 days, the signal was retained for more than 21 days at high dose (10 nmol) of DSPE-PEG-FITC (FIG. 3A). Free FITC signal was lost in 24 hours (FIG. 3A).

[2] = mouse, in vivo
Description: One concern was that repeated vaccination may elicit antibody against FITC when conjugated to DSPE-PEG, thus blocking its stimulation to CAR in lymph nodes.

Nc1nc2c(ncn2[C@@H]2O[C@@H]3COP(=O)(O)O[C@H]4[C@@H](O)[C@H](n5cnc6c(=O)[nH]c(N)nc65)O[C@@H]4COP(=O)(O)O[C@H]3[C@H]2O)c(=O)[nH]1 [c-di-GMP, cyclic-di-GMP]
proliferation of CAR-T cells in LN (FITC-CAR-T): Minimal proliferation

fluorescein isothiocyanate [Free FITC]
time in which FITC signal was lost in LN [1]: ≤ 24 h

B1: FITC-OVA: FITC conjugated to the carrier protein OVA (conjugate, UniProt P01012 2-386, looked up)
Ovalbumin: GSIGAASMEFCFDVFKELKVHHANENIFYCPIAIMSALAMVYLGAKDSTRTQINKVVRFDKLPGFGDSIEAQCGTSVNVHSSLRDILNQITKPNDVYSFSLASRLYAEERYPILPEYLQCVKELYRGGLEPINFQTAADQARELINSWVESQTNGIIRNVLQPSSVDSQTAMVLVNAIVFKGLWEKAFKDEDTQAMPFRVTEQESKPVQMMYQIGLFRVASMASEKMKILELPFASGTMSMLVLLPDEVSGLEQLESIINFEKLTEWTSSNVMEERKIKVYLPRMKMEEKYNLTSVLMAMGITDVFSSSANLSGISSAESLKISQAVHAAHAEINEAGREVVGSAEAGVDAASVSEEFRADHPFLFCIKHIATNAVLFFGRCVSP
modifications: FITC
antibody response against FITC [2]: no antibody response was observed
